Experimental data reported in ChEMBL document CHEMBL1127443 (J Med Chem, 1994).
pKi: −log10 of the molar value.

What was measured:
[1] = target: T1, 5-hydroxytryptamine receptor 1D (Homo sapiens, UniProt P28221); test: Compound was evaluated for its agonistic activity on 5-hydroxytryptamine 1D receptor; type: functional
[2] = target: T2, 5-hydroxytryptamine receptor 2C (Rattus norvegicus, UniProt P08909); test: Binding affinity was measured on 5-hydroxytryptamine 2C receptor in J1 cells transfected with rat 5-HT2C gene labeled with [3H]mesulergine; type: cell-based
T2 sequence (P08909 whole entry): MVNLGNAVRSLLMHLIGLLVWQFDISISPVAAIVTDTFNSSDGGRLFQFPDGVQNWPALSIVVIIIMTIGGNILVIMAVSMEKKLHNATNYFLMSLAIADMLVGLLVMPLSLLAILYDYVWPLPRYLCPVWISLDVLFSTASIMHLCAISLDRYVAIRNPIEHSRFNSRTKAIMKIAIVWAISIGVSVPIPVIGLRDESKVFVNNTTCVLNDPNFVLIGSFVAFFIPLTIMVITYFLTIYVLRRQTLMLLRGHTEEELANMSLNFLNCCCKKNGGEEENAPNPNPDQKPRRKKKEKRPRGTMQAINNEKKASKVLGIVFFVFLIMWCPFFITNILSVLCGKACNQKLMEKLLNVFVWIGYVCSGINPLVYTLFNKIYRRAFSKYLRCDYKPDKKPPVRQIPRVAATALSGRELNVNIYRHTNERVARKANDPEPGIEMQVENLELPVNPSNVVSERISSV

[3] = target: T3, Serotonin 3 (5-HT3) receptor (Rattus norvegicus, UniProt P35563+Q9JJ16); test: Binding affinity was measured on 5-hydroxytryptamine 3 receptor in NG-108 cells labeled with [3H]GR-65630; type: cell-based
T3 sequence (P35563 whole entry): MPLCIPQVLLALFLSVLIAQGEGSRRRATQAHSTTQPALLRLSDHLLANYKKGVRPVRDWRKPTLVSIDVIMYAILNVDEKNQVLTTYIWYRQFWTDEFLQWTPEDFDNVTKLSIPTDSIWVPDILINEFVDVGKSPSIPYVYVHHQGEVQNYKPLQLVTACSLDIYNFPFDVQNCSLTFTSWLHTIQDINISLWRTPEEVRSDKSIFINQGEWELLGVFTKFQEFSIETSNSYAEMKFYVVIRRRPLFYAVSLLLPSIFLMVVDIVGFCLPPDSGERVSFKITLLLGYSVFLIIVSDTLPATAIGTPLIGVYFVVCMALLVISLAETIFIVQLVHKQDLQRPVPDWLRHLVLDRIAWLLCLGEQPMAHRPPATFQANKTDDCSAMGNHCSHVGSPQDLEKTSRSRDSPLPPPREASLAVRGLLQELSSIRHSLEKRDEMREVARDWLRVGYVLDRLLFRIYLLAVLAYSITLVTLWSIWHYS
T3 sequence (Q9JJ16 whole entry): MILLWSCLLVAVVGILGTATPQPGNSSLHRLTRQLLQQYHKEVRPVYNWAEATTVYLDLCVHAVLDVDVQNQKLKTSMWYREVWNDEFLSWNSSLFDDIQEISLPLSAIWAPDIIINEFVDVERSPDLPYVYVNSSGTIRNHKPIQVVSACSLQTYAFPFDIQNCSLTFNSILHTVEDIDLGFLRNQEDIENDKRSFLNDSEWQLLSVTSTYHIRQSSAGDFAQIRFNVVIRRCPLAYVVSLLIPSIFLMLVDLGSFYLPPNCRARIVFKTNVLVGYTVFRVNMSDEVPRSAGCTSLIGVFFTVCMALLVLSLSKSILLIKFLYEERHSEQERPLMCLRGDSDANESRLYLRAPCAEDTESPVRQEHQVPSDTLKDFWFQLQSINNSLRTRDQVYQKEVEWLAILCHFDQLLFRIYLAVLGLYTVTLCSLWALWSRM

[4] = target: T1, 5-hydroxytryptamine receptor 1D; test: Binding affinity was measured on 5-hydroxytryptamine 1D receptor alpha in COS cells transfected with human 5-HT1D alpha gene labeled with [3H]5-HT; type: cell-based
[5] = target: 5-hydroxytryptamine receptor 2A (Homo sapiens, UniProt P28223); test: biochemical; type: cell-based, GF6
[6] = target: 5-hydroxytryptamine receptor 1B (Rattus norvegicus, UniProt P28564); test: Binding affinity was measured on 5-hydroxytryptamine 1B receptor in rat striatum labeled with [3H]5-HT; type: tissue-based
Sequence of 5-hydroxytryptamine receptor 1B (P28564 whole entry): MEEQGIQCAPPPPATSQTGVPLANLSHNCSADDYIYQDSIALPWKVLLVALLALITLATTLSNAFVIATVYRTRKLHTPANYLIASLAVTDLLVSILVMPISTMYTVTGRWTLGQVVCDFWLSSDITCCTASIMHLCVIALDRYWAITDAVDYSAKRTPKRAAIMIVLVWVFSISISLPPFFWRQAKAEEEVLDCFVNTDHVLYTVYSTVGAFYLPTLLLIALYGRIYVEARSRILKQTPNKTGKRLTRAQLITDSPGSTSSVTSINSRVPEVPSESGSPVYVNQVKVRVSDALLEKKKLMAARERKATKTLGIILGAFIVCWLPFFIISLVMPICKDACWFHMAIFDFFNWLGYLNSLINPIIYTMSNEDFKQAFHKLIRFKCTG

T1 sequence (P28221 whole entry): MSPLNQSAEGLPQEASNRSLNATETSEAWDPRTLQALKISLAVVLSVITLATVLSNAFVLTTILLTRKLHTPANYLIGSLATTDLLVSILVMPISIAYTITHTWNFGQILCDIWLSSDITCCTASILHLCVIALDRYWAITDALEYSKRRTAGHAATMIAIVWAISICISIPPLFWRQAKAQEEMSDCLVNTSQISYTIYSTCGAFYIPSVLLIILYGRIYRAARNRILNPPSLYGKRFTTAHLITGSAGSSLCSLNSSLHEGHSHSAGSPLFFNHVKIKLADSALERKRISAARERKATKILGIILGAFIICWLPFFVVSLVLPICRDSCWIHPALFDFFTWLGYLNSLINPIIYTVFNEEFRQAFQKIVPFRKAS
Sequence of 5-hydroxytryptamine receptor 2A (P28223 whole entry): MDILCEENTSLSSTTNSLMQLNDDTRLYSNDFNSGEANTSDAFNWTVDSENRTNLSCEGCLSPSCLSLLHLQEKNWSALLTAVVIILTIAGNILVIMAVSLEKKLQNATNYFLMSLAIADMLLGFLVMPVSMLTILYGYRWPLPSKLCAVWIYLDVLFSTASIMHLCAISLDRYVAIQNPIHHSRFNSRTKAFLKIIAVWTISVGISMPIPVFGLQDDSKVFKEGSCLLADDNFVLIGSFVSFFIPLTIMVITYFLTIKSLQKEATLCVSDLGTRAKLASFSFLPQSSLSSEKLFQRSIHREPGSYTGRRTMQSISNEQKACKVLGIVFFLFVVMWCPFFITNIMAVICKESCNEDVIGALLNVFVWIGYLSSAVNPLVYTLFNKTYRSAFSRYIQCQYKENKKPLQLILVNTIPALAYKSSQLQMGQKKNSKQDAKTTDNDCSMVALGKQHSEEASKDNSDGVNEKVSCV

SMILES | ED50 [1] [nM] | pKi [2] | pKi [3] | pKi [4] | pKi [5] | pKi [6]
CNS(=O)(=O)Cc1ccc2[nH]cc(CCN(C)C)c2c1 | 317 | < 6.00 | < 6.00 | – | – | –
NCCc1c[nH]c2ccc(O)cc12 | 1.2 | – | – | – | – | –
CCCCCCCCCOc1ccc2[nH]cc(CCN)c2c1 | 68 | 6.57 | < 6.00 | 7.80 | 6.59 | 7.89
